In ChEMBL document CHEMBL5053552, “Design, Synthesis, and Antiviral activity of 1,2,3,4-Tetrahydropyrimidine derivatives acting as novel entry inhibitors to target at "Phe43 cavity" of HIV-1 gp120” (Bioorg Med Chem, 2021) one finds CC50, IC50 and inhibition data, which are given here for twelve compounds.

Data set [1] is described as follows: Cytotoxicity against human SUP-T1 cells assessed as reduction in cell viability measured after 16 hrs by MTT assay. The format is cell-based.
The test system of data set [2] is Human immunodeficiency virus 1. Put plainly: Antiviral activity against HIV1 931N101 infected in human SupT1 cells assessed as inhibition of viral entry mesaured after 96 hrs by p24- ELISA assay. The note with it: Human immunodeficiency virus 1, 931N101, SUP-T1, 96 h. The format is functional, organism-based.
Another data set concerns SUP-T1. Put plainly: Inhibition of HIV1 gp120 interaction with CD4 in human SUP-T1 cells expressing CCR5, CXCR4 assessed as decrease in viral entry by fluorescent microscopic assay. The data set is classed as cell-based. The settings on record: Human immunodeficiency virus 1.
For data set [3], the system named is Human immunodeficiency virus 1. Description: Antiviral activity against HIV1 931N101 infected in human SupT1 cells assessed as inhibition of viral entry at 2.2 uM mesaured after 96 hrs by p24- ELISA assay relative to control. The note with it: Human immunodeficiency virus 1, 931N101, SUP-T1. The format is functional.

Each structure is given as a SMILES string. Activity calls are given as the source filed them. No cut-off for these calls is given here.

As to `CCOC(=O)C1=C(C)NC(=O)NC1c1ccc(OC)cc1` (configuration not stated), in data set [1], the half-maximal cytotoxic concentration (CC50) at 16 h was 103 µM. Further, the IC50 in data set [2] was 6.2 µM.
For the compound `CCOC(=O)C1=C(C)NC(=S)NC1c1ccc(Br)cc1` (configuration not stated), the CC50 at 16 h in data set [1] was determined as 136 µM. In addition, the 50% inhibitory concentration (IC50) in data set [2] was 4.2 µM.
For the compound `CCOC(=O)C1=C(C)NC(=O)NC1c1cc(Br)ccc1O` (configuration not stated), the CC50 at 16 h in data set [1] is 138 µM. Also, the IC50 in data set [2] is 5.3 µM.
Regarding `CCOC(=O)C1=C(C)NC(=S)NC1c1ccc(OC)cc1` (configuration not stated), in data set [1], the CC50 at 16 h was found to be 110 µM. Also, in data set [2], the IC50 was 4.5 µM.
In the case of `CCOC(=O)C1=C(C)NC(=O)NC1c1ccc(O)c(OC)c1` (configuration not stated), the CC50 at 16 h in data set [1] was 141 µM. Also, the IC50 in data set [2] was 8.5 µM. Also, the inhibition entry in the data set on SUP-T1 was “Active”.
With `CCOC(=O)C1=C(C)NC(=S)NC1c1ccc(O)cc1` (configuration not stated), the CC50 at 16 h in data set [1] is 88.9 µM. For the same compound, in data set [2], the 50% inhibitory concentration (IC50) worked out at 4 µM.
The corresponding values for `CCOC(=O)C1=C(C)NC(=O)NC1c1ccc(O)cc1` (configuration not stated) are 132 µM and 6 µM.
With `CCOC(=O)C1=C(C)NC(=S)NC1c1ccc(O)c(OC)c1` (configuration not stated), the inhibition at 2.2 µM in data set [3] was 50%. In data set [1], the CC50 at 16 h was determined as 101 µM. In data set [2], the IC50 came to 2.2 µM. Moreover, in the data set with SUP-T1, the inhibition entry was “Active”.
Consider `CCOC(=O)C1=C(C)NC(=O)NC1c1ccccc1C` (configuration not stated), for which the CC50 at 16 h in data set [1] was determined as 136 µM. Besides, the IC50 in data set [2] worked out at 9.5 µM.
As for `CCOC(=O)C1=C(C)NC(=S)NC1c1ccccc1C` (configuration not stated), the CC50 at 16 h in data set [1] worked out at 124 µM. In addition, in data set [2], the IC50 was 5.2 µM.
Regarding `CCOC(=O)C1=C(C)NC(=S)NC1c1cccc(Cl)c1` (configuration not stated), the CC50 at 16 h in data set [1] was 97.6 µM. For the same compound, the IC50 in data set [2] was 3.5 µM.
For the compound `CCOC(=O)C1=C(C)NC(=S)NC1c1cc(Br)ccc1O` (configuration not stated), the CC50 at 16 h in data set [1] came to 83.4 µM. Besides, the IC50 in data set [2] is 3.7 µM.
